In PubChem BioAssay (NCI):
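48-hour exposure; five concentrations; linearly interpolated endpoints. GI50 marks 50% less growth. TGI denotes the concentration required for complete inhibition of growth.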

How the values were obtained:
Assay in all cases: NCI-60 cell line screen, 48 h
MCF7 breast = test system: MCF7 breast
MDA-MB-231 breast = test system: MDA-MB-231 breast
HS 578T breast = test system: HS 578T breast
MDA-MB-435 = test system: MDA-MB-435
HOP-18 NSCLC = test system: HOP-18 NSCLC
ACHN renal = test system: ACHN renal
K-562 leukemia = test system: K-562 leukemia
HCT-116 colon = test system: HCT-116 colon
SF-268 CNS = test system: SF-268 CNS
M19-MEL melanoma = test system: M19-MEL melanoma
NCI-H226 lung = test system: NCI-H226 lung
SK-MEL-28 melanoma = test system: SK-MEL-28 melanoma
CAKI-1 renal = test system: CAKI-1 renal
SW-620 colon = test system: SW-620 colon
LOX IMVI melanoma = test system: LOX IMVI melanoma
SK-MEL-2 melanoma = test system: SK-MEL-2 melanoma

For `COc1ccc(CNCCN2C(=O)c3ccc4c5c(ccc(c35)C2=O)C(=O)N(CCNCc2ccc(OC)c(OC)c2OC)C4=O)c(OC)c1OC`, the GI50 (MCF7 breast) was 222 nM, the TGI (MCF7 breast) was 1150 nM and the GI50 (MDA-MB-231 breast) was 239 nM. For the same molecule, the TGI (MDA-MB-231 breast) was 2370 nM, the GI50 (HS 578T breast) was 985 nM and the TGI (HS 578T breast) was 2810 nM. It also gave a GI50 (MDA-MB-435) of 250 nM and a TGI (MDA-MB-435) of 801 nM.

With `C#CCN1C(=O)CN2C(Cl)(Cl)C2(c2ccccc2)c2cc(Cl)ccc21` (stereo not given) the TGI (HOP-18 NSCLC) was > 100000 nM, the TGI (ACHN renal) was > 100000 nM and the TGI (K-562 leukemia) was > 100000 nM. The TGI (HCT-116 colon) was > 100000 nM, the TGI (SF-268 CNS) was > 100000 nM and the TGI (M19-MEL melanoma) was > 100000 nM. For the same molecule, the TGI (NCI-H226 lung) was > 100000 nM, the TGI (SK-MEL-28 melanoma) was > 100000 nM and the TGI (CAKI-1 renal) was > 100000 nM. For the same molecule, the TGI (SW-620 colon) was > 100000 nM, the TGI (LOX IMVI melanoma) was > 100000 nM and the TGI (SK-MEL-2 melanoma) was > 100000 nM.
